Data reported in ChEMBL document CHEMBL1144827, “PTP1B inhibitors: synthesis and evaluation of difluoro-methylenephosphonate bioisosteres on a sulfonamide scaffold” (Bioorg Med Chem Lett, 2008).

The molecules below were run against T1, Tyrosine-protein phosphatase non-receptor type 1 (Homo sapiens, UniProt P18031) (assay: Inhibition of PTP1B).
T1 sequence (P18031 whole entry): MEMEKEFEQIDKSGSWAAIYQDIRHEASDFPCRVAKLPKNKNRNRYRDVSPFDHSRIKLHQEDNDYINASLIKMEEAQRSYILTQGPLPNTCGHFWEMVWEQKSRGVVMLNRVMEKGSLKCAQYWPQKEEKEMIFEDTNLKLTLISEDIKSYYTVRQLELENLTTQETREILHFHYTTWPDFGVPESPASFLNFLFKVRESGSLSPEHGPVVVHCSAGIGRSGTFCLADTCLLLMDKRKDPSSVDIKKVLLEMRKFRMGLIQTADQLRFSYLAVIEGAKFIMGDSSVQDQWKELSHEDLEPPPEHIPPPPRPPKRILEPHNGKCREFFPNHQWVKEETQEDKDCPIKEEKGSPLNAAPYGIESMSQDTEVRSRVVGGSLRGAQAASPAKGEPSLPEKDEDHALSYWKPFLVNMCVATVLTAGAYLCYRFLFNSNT

Row | Compound | IC50
1 | O=C(O)COc1ccc(S(=O)(=O)N(Cc2ccc(-c3csnn3)cc2)Cc2ccc([S+]([O-])CC(=O)O)cc2)cc1 (centres undefined) | > 250 µM
2 | O=C(O)COc1ccc(S(=O)(=O)N(Cc2ccc(-c3csnn3)cc2)Cc2ccc(N(C(=O)C(=O)O)c3ccccc3)cc2)cc1 | > 250 µM
3 | Cc1cc(CN(Cc2ccc(-c3csnn3)cc2)S(=O)(=O)c2ccc(OCC(=O)O)cc2)ccc1OCC(=O)O | 76.2 µM
4 | O=P(O)(O)Cc1ccc(CN(Cc2ccc(-c3csnn3)cc2)S(=O)(=O)c2ccccc2)cc1 | 123 µM
5 | COc1cc(CN(Cc2ccc(-c3csnn3)cc2)S(=O)(=O)c2ccccc2)ccc1OC(F)(F)C(=O)O | 237 µM
6 | O=C(O)C(=O)c1ccc(CN(Cc2ccc(-c3csnn3)cc2)S(=O)(=O)c2ccccc2)cc1 | 60.3 µM
7 | O=C(O)COc1c(F)cc(CN(Cc2ccc(-c3csnn3)cc2)S(=O)(=O)c2ccccc2)cc1F | 137 µM
8 | Cc1cc(CN(Cc2ccc(-c3csnn3)cc2)S(=O)(=O)c2ccccc2)cc(C)c1OC(Cc1ccccc1)C(=O)O (centres undefined) | 38 µM
9 | O=C(O)COc1ccc(S(=O)(=O)N(Cc2ccc(-c3csnn3)cc2)Cc2ccc3oc(C(=O)O)cc3c2)cc1 | 29.1 µM
10 | O=C(O)COc1ccc(S(=O)(=O)N(Cc2ccc(-c3csnn3)cc2)Cc2ccc(S(=O)(=O)CC(=O)O)cc2)cc1 | > 250 µM
11 | O=C(O)COc1ccc(S(=O)(=O)N(Cc2ccc(OC(F)(F)C(=O)O)cc2)Cc2ccc(-c3csnn3)cc2)cc1 | 29.1 µM
12 | O=C(O)C(=O)Nc1ccc(CN(Cc2ccc(-c3csnn3)cc2)S(=O)(=O)c2ccccc2)cc1Br | 13.8 µM
13 | O=C(O)COc1ccc(CN(Cc2ccc(-c3csnn3)cc2)S(=O)(=O)c2ccccc2)cc1 | 54.1 µM
14 | O=C(O)COc1ccc(CN(Cc2ccc(-c3csnn3)cc2)S(=O)(=O)c2ccc(OCC(=O)O)cc2)cc1 | 59.6 µM
15 | O=C(O)C(F)(F)Oc1ccc(CN(Cc2ccc(-c3csnn3)cc2)S(=O)(=O)c2ccccc2)cc1 | 97.1 µM
16 | O=C(O)COc1ccc(S(=O)(=O)N(Cc2ccc(-c3csnn3)cc2)Cc2ccc(OC(F)(F)C(=O)O)c(Br)c2)cc1 | 77.9 µM
17 | O=C(O)CS(=O)(=O)c1ccc(CN(Cc2ccc(-c3csnn3)cc2)S(=O)(=O)c2ccccc2)cc1 | 232 µM
18 | O=C(O)COc1ccc(CN(Cc2ccc(-c3csnn3)cc2)S(=O)(=O)c2ccccc2)cc1C(=O)O | 12.2 µM
19 | O=C(O)COc1ccc(S(=O)(=O)N(Cc2ccc(-c3csnn3)cc2)Cc2ccc(OCC(=O)O)c(C(=O)O)c2)cc1 | 4.4 µM
20 | O=C(O)COc1ccc(S(=O)(=O)N(Cc2ccc(-c3csnn3)cc2)Cc2ccc(OCC(=O)O)c(Br)c2)cc1 | 4.1 µM
21 | O=C(O)COc1ccc(S(=O)(=O)N(Cc2ccc(CP(=O)(O)O)cc2)Cc2ccc(-c3csnn3)cc2)cc1 | 96.8 µM
22 | O=C(O)C(F)(F)Oc1ccc(CN(Cc2ccc(-c3csnn3)cc2)S(=O)(=O)c2ccccc2)cc1Br | 52.1 µM
23 | Cc1cc(CN(Cc2ccc(-c3csnn3)cc2)S(=O)(=O)c2ccccc2)ccc1OCC(=O)O | 80.7 µM
24 | O=P(O)(O)C(F)(F)c1ccc(CN(Cc2ccc(-c3csnn3)cc2)S(=O)(=O)c2ccccc2)cc1 | 0.2 µM
25 | O=C(O)C(=O)N(c1ccccc1)c1ccc(CN(Cc2ccc(-c3csnn3)cc2)S(=O)(=O)c2ccccc2)cc1 | 235 µM
26 | Cc1cc(CN(Cc2ccc(-c3csnn3)cc2)S(=O)(=O)c2ccc(OCC(=O)O)cc2)cc(C)c1OC(Cc1ccccc1)C(=O)O (centres undefined) | > 250 µM
27 | O=C(O)COc1ccc(S(=O)(=O)N(Cc2ccc(-c3csnn3)cc2)Cc2ccc(NC(=O)C(=O)O)c(C(=O)O)c2)cc1 | 1.4 µM
28 | COc1cc(CN(Cc2ccc(-c3csnn3)cc2)S(=O)(=O)c2ccc(OCC(=O)O)cc2)ccc1OC(F)(F)C(=O)O | > 250 µM

Further molecules by falling IC50, results first:

Row | IC50 | Compound
29 | 230 µM | O=C(O)COc1ccc(S(=O)(=O)N(Cc2ccc(-c3csnn3)cc2)Cc2cccc(OC(F)(F)C(=O)O)c2)cc1
30 | 198 µM | O=C(O)C(F)(F)Oc1cccc(CN(Cc2ccc(-c3csnn3)cc2)S(=O)(=O)c2ccccc2)c1
31 | 173 µM | O=C(O)C[S+]([O-])c1ccc(CN(Cc2ccc(-c3csnn3)cc2)S(=O)(=O)c2ccccc2)cc1 (centres undefined)
32 | 153 µM | CC(C(=O)O)c1ccc(CN(Cc2ccc(-c3csnn3)cc2)S(=O)(=O)c2ccc(OCC(=O)O)cc2)cc1 (centres undefined)
33 | 115 µM | O=C(O)CSc1ccc(CN(Cc2ccc(-c3csnn3)cc2)S(=O)(=O)c2ccccc2)cc1
34 | 114 µM | O=C(O)COc1ccc(S(=O)(=O)N(Cc2ccc(SCC(=O)O)cc2)Cc2ccc(-c3csnn3)cc2)cc1
35 | 74.2 µM | CC(C(=O)O)(C(=O)O)c1ccc(CN(Cc2ccc(-c3csnn3)cc2)S(=O)(=O)c2ccc(OCC(=O)O)cc2)cc1
36 | 63.6 µM | O=C(O)c1cc2cc(CN(Cc3ccc(-c4csnn4)cc3)S(=O)(=O)c3ccccc3)ccc2o1
37 | 57.7 µM | O=C(O)COc1ccc(S(=O)(=O)N(Cc2ccc(-c3csnn3)cc2)Cc2ccc(OCC(=O)O)c(Cl)c2)cc1
38 | 53.8 µM | O=C(O)COc1ccc(CN(Cc2ccc(-c3csnn3)cc2)S(=O)(=O)c2ccccc2)cc1Cl
39 | 51.8 µM | O=C(O)C(F)(F)c1ccc(CN(Cc2ccc(-c3csnn3)cc2)S(=O)(=O)c2ccccc2)cc1
40 | 27.6 µM | O=C(O)COc1ccc(S(=O)(=O)N(Cc2ccc(C(=O)C(=O)O)cc2)Cc2ccc(-c3csnn3)cc2)cc1
41 | 19.9 µM | O=C(O)COc1ccc(S(=O)(=O)N(Cc2ccc(-c3csnn3)cc2)Cc2cc(F)c(OCC(=O)O)c(F)c2)cc1
42 | 17.7 µM | O=C(O)COc1ccc(S(=O)(=O)N(Cc2ccc(-c3csnn3)cc2)Cc2ccc(C(F)(F)C(=O)O)cc2)cc1
43 | 10.1 µM | O=C(O)C(=O)Nc1ccc(CN(Cc2ccc(-c3csnn3)cc2)S(=O)(=O)c2ccccc2)cc1C(=O)O
44 | 7.9 µM | O=C(O)COc1ccc(CN(Cc2ccc(-c3csnn3)cc2)S(=O)(=O)c2ccccc2)cc1Br
